≈ marks a conversion by molar mass, not a printed value. Calls of active or inactive are those of the source. The rule behind the calls is not given here.
Assays:
[1] = Inhibition of bacterial Metallo-beta-lactamase IMP-1 using nitrocefin as substrate pre-incubated for 15 mins followed by substrate addition by microplate reader; design: species or system Bacteria
Escherichia coli [2] = assay: Antibacterial activity against Escherichia coli KB366 expressing IMP-1 assessed as inhibition of bacterial growth at 100 ug in presence of meropenem incubated overnight by paper disk method; format: functional; conditions: read-out: IZ
Escherichia coli [3] = assay: Antibacterial activity against Escherichia coli KB366 expressing IMP-1 assessed as inhibition of bacterial growth at 30 ug in presence of meropenem incubated overnight by paper disk method; format: functional; conditions: read-out: IZ
Escherichia coli [4] = assay: Antibacterial activity against Escherichia coli KB366 expressing IMP-1 assessed as inhibition of bacterial growth at 10 ug in presence of meropenem incubated overnight by paper disk method; format: functional; conditions: read-out: IZ
Escherichia coli [5] = assay: Antibacterial activity against Escherichia coli KB366 expressing IMP-1 assessed as inhibition of bacterial growth at 3 ug in presence of meropenem incubated overnight by paper disk method; format: functional; conditions: read-out: IZ
Escherichia coli [6] = assay: Antibacterial activity against Escherichia coli KB366 expressing IMP-1 assessed as inhibition of bacterial growth at 1 ug in presence of meropenem incubated overnight by paper disk method; format: functional; conditions: read-out: IZ
Escherichia coli [7] = assay: Antibacterial activity against Escherichia coli KB366 expressing IMP-1 assessed as inhibition of bacterial growth at 0.3 ug in presence of meropenem incubated overnight by paper disk method; format: functional; conditions: read-out: IZ
Escherichia coli [8] = assay: Antibacterial activity against Escherichia coli KB366 expressing IMP-1 assessed as inhibition of bacterial growth at 0.1 ug in presence of meropenem incubated overnight by paper disk method; format: functional; conditions: read-out: IZ
Escherichia coli [9] = assay: Antibacterial activity against Escherichia coli KB366 expressing IMP-1 assessed as inhibition of bacterial growth at 0.03 ug in presence of meropenem incubated overnight by paper disk method; format: functional; conditions: read-out: IZ
Escherichia coli [10] = assay: Antibacterial activity against Escherichia coli KB366 expressing IMP-1 assessed as inhibition of bacterial growth at 0.01 ug in presence of meropenem incubated overnight by paper disk method; format: functional; conditions: dose 0.01 µg
Escherichia coli [11] = assay: Antibacterial activity against Escherichia coli KB366 expressing IMP-1 assessed as inhibition of bacterial growth at 100 ug in absence of meropenem incubated overnight by paper disk method; format: functional, organism-based; conditions: dose 100.0 µg
Escherichia coli [12] = assay: Antibacterial activity against Escherichia coli KB366 expressing IMP-1 assessed as inhibition of bacterial growth at 30 ug in absence of meropenem incubated overnight by paper disk method; format: functional, organism-based; conditions: dose 30.0 µg
Escherichia coli [13] = assay: Antibacterial activity against Escherichia coli KB366 expressing IMP-1 assessed as inhibition of bacterial growth at 10 ug in absence of meropenem incubated overnight by paper disk method; format: functional, organism-based; conditions: dose 10.0 µg
Escherichia coli [14] = assay: Antibacterial activity against Escherichia coli KB366 expressing IMP-1 assessed as inhibition of bacterial growth at 3 ug in absence of meropenem incubated overnight by paper disk method; format: functional, organism-based; conditions: dose 3.0 µg
Escherichia coli [15] = assay: Antibacterial activity against Escherichia coli KB366 expressing IMP-1 assessed as inhibition of bacterial growth at 1 ug in absence of meropenem incubated overnight by paper disk method; format: functional, organism-based; conditions: dose 1.0 µg
Escherichia coli [16] = assay: Antibacterial activity against Escherichia coli KB366 expressing IMP-1 assessed as inhibition of bacterial growth at 0.3 ug in absence of meropenem incubated overnight by paper disk method; format: functional, organism-based; conditions: dose 0.3 µg
Escherichia coli [17] = assay: Antibacterial activity against Escherichia coli KB366 expressing IMP-1 assessed as inhibition of bacterial growth at 0.1 ug in absence of meropenem incubated overnight by paper disk method; format: functional, organism-based; conditions: dose 0.1 µg
Escherichia coli [18] = assay: Antibacterial activity against Escherichia coli KB366 expressing IMP-1 assessed as inhibition of bacterial growth at 0.03 ug in absence of meropenem incubated overnight by paper disk method; format: functional, organism-based; conditions: dose 0.03 µg
Escherichia coli [19] = assay: Antibacterial activity against Escherichia coli KB366 expressing IMP-1 assessed as inhibition of bacterial growth at 0.01 ug in absence of meropenem incubated overnight by paper disk method; format: functional, organism-based; conditions: dose 0.01 µg
Pseudomonas aeruginosa [20] = assay: Antibacterial activity against Pseudomonas aeruginosa KB367 expressing IMP-1 assessed as inhibition of bacterial growth at 100 ug in presence of meropenem incubated overnight by paper disk method; format: functional; conditions: read-out: IZ
Pseudomonas aeruginosa [21] = assay: Antibacterial activity against Pseudomonas aeruginosa KB367 expressing IMP-1 assessed as inhibition of bacterial growth at 30 ug in presence of meropenem incubated overnight by paper disk method; format: functional; conditions: read-out: IZ
Pseudomonas aeruginosa [22] = assay: Antibacterial activity against Pseudomonas aeruginosa KB367 expressing IMP-1 assessed as inhibition of bacterial growth at 10 ug in presence of meropenem incubated overnight by paper disk method; format: functional; conditions: read-out: IZ
Pseudomonas aeruginosa [23] = assay: Antibacterial activity against Pseudomonas aeruginosa KB367 expressing IMP-1 assessed as inhibition of bacterial growth at 3 ug in presence of meropenem incubated overnight by paper disk method; format: functional; conditions: read-out: IZ
Pseudomonas aeruginosa [24] = assay: Antibacterial activity against Pseudomonas aeruginosa KB367 expressing IMP-1 assessed as inhibition of bacterial growth at 1 ug in presence of meropenem incubated overnight by paper disk method; format: functional; conditions: read-out: IZ
Pseudomonas aeruginosa [25] = assay: Antibacterial activity against Pseudomonas aeruginosa KB367 expressing IMP-1 assessed as inhibition of bacterial growth at 0.3 ug in presence of meropenem incubated overnight by paper disk method; format: functional, organism-based; conditions: dose 0.3 µg
Pseudomonas aeruginosa [26] = assay: Antibacterial activity against Pseudomonas aeruginosa KB367 expressing IMP-1 assessed as inhibition of bacterial growth at 0.1 ug in presence of meropenem incubated overnight by paper disk method; format: functional, organism-based; conditions: dose 0.1 µg
Pseudomonas aeruginosa [27] = assay: Antibacterial activity against Pseudomonas aeruginosa KB367 expressing IMP-1 assessed as inhibition of bacterial growth at 0.03 ug in presence of meropenem incubated overnight by paper disk method; format: functional, organism-based; conditions: dose 0.03 µg
Pseudomonas aeruginosa [28] = assay: Antibacterial activity against Pseudomonas aeruginosa KB367 expressing IMP-1 assessed as inhibition of bacterial growth at 0.01 ug in presence of meropenem incubated overnight by paper disk method; format: functional, organism-based; conditions: dose 0.01 µg
Pseudomonas aeruginosa [29] = assay: Antibacterial activity against Pseudomonas aeruginosa KB367 expressing IMP-1 assessed as inhibition of bacterial growth at 100 ug in absence of meropenem incubated overnight by paper disk method; format: functional, organism-based; conditions: dose 100.0 µg
Pseudomonas aeruginosa [30] = assay: Antibacterial activity against Pseudomonas aeruginosa KB367 expressing IMP-1 assessed as inhibition of bacterial growth at 30 ug in absence of meropenem incubated overnight by paper disk method; format: functional, organism-based; conditions: dose 30.0 µg
Pseudomonas aeruginosa [31] = assay: Antibacterial activity against Pseudomonas aeruginosa KB367 expressing IMP-1 assessed as inhibition of bacterial growth at 10 ug in absence of meropenem incubated overnight by paper disk method; format: functional, organism-based; conditions: dose 10.0 µg
Pseudomonas aeruginosa [32] = assay: Antibacterial activity against Pseudomonas aeruginosa KB367 expressing IMP-1 assessed as inhibition of bacterial growth at 3 ug in absence of meropenem incubated overnight by paper disk method; format: functional, organism-based; conditions: dose 3.0 µg
Pseudomonas aeruginosa [33] = assay: Antibacterial activity against Pseudomonas aeruginosa KB367 expressing IMP-1 assessed as inhibition of bacterial growth at 1 ug in absence of meropenem incubated overnight by paper disk method; format: functional, organism-based; conditions: dose 1.0 µg
Pseudomonas aeruginosa [34] = assay: Antibacterial activity against Pseudomonas aeruginosa KB367 expressing IMP-1 assessed as inhibition of bacterial growth at 0.3 ug in absence of meropenem incubated overnight by paper disk method; format: functional, organism-based; conditions: dose 0.3 µg
Pseudomonas aeruginosa [35] = assay: Antibacterial activity against Pseudomonas aeruginosa KB367 expressing IMP-1 assessed as inhibition of bacterial growth at 0.1 ug in absence of meropenem incubated overnight by paper disk method; format: functional, organism-based; conditions: dose 0.1 µg
Pseudomonas aeruginosa [36] = assay: Antibacterial activity against Pseudomonas aeruginosa KB367 expressing IMP-1 assessed as inhibition of bacterial growth at 0.03 ug in absence of meropenem incubated overnight by paper disk method; format: functional, organism-based; conditions: dose 0.03 µg
Pseudomonas aeruginosa [37] = assay: Antibacterial activity against Pseudomonas aeruginosa KB367 expressing IMP-1 assessed as inhibition of bacterial growth at 0.01 ug in absence of meropenem incubated overnight by paper disk method; format: functional, organism-based; conditions: dose 0.01 µg

SMILES: CCCCC(C(=O)N1CCCCC1)=C(C(=O)O)c1ccc(O)c(O)c1
- IC50 [1]: 0.55 µg/mL (≈ 1.58 µM)
- zone of inhibition at 100 µg/disc (Escherichia coli [2]): 24 mm
- zone of inhibition at 30 µg/disc (Escherichia coli [3]): 23 mm
- zone of inhibition at 10 µg/disc (Escherichia coli [4]): 21 mm
- zone of inhibition at 3 µg/disc (Escherichia coli [5]): 20 mm
- zone of inhibition at 1 µg/disc (Escherichia coli [6]): 17 mm
- zone of inhibition at 0.3 µg/disc (Escherichia coli [7]): 15 mm
- zone of inhibition at 0.1 µg/disc (Escherichia coli [8]): 12 mm
- zone of inhibition at 0.03 µg/disc (Escherichia coli [9]): 10 mm
- inhibition zone (IZ) (Escherichia coli [10]): inactive
- inhibition zone (IZ) (Escherichia coli [11]): inactive
- inhibition zone (IZ) (Escherichia coli [12]): inactive
- inhibition zone (IZ) (Escherichia coli [13]): inactive
- inhibition zone (IZ) (Escherichia coli [14]): inactive
- inhibition zone (IZ) (Escherichia coli [15]): inactive
- inhibition zone (IZ) (Escherichia coli [16]): inactive
- inhibition zone (IZ) (Escherichia coli [17]): inactive
- inhibition zone (IZ) (Escherichia coli [18]): inactive
- inhibition zone (IZ) (Escherichia coli [19]): inactive
- zone of inhibition at 100 µg/disc (Pseudomonas aeruginosa [20]): 16 mm
- zone of inhibition at 30 µg/disc (Pseudomonas aeruginosa [21]): 13 mm
- zone of inhibition at 10 µg/disc (Pseudomonas aeruginosa [22]): 12 mm
- zone of inhibition at 3 µg/disc (Pseudomonas aeruginosa [23]): 12 mm
- zone of inhibition at 1 µg/disc (Pseudomonas aeruginosa [24]): 9 mm
- inhibition zone (IZ) (Pseudomonas aeruginosa [25]): inactive
- inhibition zone (IZ) (Pseudomonas aeruginosa [26]): inactive
- inhibition zone (IZ) (Pseudomonas aeruginosa [27]): inactive
- inhibition zone (IZ) (Pseudomonas aeruginosa [28]): inactive
- inhibition zone (IZ) (Pseudomonas aeruginosa [29]): inactive
- inhibition zone (IZ) (Pseudomonas aeruginosa [30]): inactive
- inhibition zone (IZ) (Pseudomonas aeruginosa [31]): inactive
- inhibition zone (IZ) (Pseudomonas aeruginosa [32]): inactive
- inhibition zone (IZ) (Pseudomonas aeruginosa [33]): inactive
- inhibition zone (IZ) (Pseudomonas aeruginosa [34]): inactive
- inhibition zone (IZ) (Pseudomonas aeruginosa [35]): inactive
- inhibition zone (IZ) (Pseudomonas aeruginosa [36]): inactive
- inhibition zone (IZ) (Pseudomonas aeruginosa [37]): inactive

— ChEMBL document CHEMBL5236661, “A new selective inhibitor for IMP-1 metallo-β-lactamase, 3Z,5E-octa-3,5-diene-1,3,4-tricarboxylic acid-3,4-anhydride” (Bioorg Med Chem, 2023)
